A word on the IC50: it is the concentration that gives 50% inhibition.

Results on 24 compounds are retold here after US20110105430A1, “PYRROLO [2,3-C] PYRIDINE DERIVATIVES AS P38 KINEASE INHIBITING AGENTS” (priority 2008, published 2011).

The target in one assay is T1, p38α (Homo sapiens, UniProt Q16539).
T1 construct: purchased Millipore
The experiment in a line: p38 kinase assay, p38-α with peptide substrate (Caliper LabChip). It counts as biochemical. As for the experimental part:
Alternatively, p38 kinase assays were performed in a reaction volume of 70 μL in a 384-well plate, at 30° for […] under the following conditions: 50 mM Hepes, pH 7.4, 10 mM MgCl2, 1 mg/ml FA Free BSA, 1 mM DTT, 10 μM ATP, 10 μM p38 peptide [Caliper Life Sciences FL-Peptide 8 (5-FAM-IPTSPITTTYFFFKKK-COOH)] and 5.7 nM p38-α (Millipore), or 14.3 nM unactivated MAPKAP kinase-2, 0.18 nM p38-α (Millipore) and 2 uM RSK peptide [Caliper Life Sciences FL-Peptide 11 (5-FAM-KKLNRTLSVA-COOH)]. Serial dilutions of compounds were added to each reaction in 700 nL DMSO. 700 nL of DMSO was added to the control wells of the reaction plate as the no inhibitor control for each inhibitor titration. The reaction was terminated by the addition of 15 μL of a 100 mM EDTA. Product formation was analyzed using the Caliper LabChip 3000. The Separation buffer contained 100 mM HEPES pH 7.5, 0.015% Brij-35, 2.5% Coating Reagent #3 (Caliper Life Sciences) and 10 mM EDTA. Calculation of the substrate product ratios are performed using the HTS Well Analyzer software provided by Caliper Life Sciences and the percent inhibition at each compound concentration is determined.

The test system of a further assay is TNF-α. Put plainly: IC50 hWB (TNF-α release assay). Particulars: Homo sapiens. Format: cell-based. As for the experimental part: Blood was obtained from healthy volunteers by venipuncture using sodium heparin as an anti-coagulant. Peripheral blood mononuclear cells (PBMCs) were isolated using Lymphocyte Separation Medium (ICN) according to manufacturers specifications. Isolated PBMCs were washed 3 times with FIBSS and diluted to a density of 2×10^6 cells/mL in RPMI+5% autologous human serum. 50 μL of the serial dilutions of inhibitor were added to wells of a 96-well tissue culture plate followed by addition of 100 μL of PBMCs and then 50 μL of RPMI complete medium containing 400 ng/mL LPS. A control well of cells without compound but with LPS (maximal stimulation control) and one without compound and without LPS (background control) were included in each titration. The cells were incubated for 16 hours in a humidified incubator at 37° C., 5% CO2. Supernatants were then harvested and TNF-α levels were quantified by immunoassay using commercial reagents (R&D, Inc).

T1 sequence (Q16539 whole entry): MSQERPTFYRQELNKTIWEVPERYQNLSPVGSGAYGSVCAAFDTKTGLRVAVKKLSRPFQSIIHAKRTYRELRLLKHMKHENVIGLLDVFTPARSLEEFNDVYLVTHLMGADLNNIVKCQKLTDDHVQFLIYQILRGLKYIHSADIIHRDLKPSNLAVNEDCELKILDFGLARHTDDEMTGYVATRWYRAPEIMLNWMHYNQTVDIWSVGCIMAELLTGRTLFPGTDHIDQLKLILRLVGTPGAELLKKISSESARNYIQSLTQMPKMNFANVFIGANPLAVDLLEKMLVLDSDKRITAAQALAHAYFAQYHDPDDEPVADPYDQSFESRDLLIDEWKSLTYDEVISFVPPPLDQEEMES

Take `Cc1cnc2nc(Cn3ccc4c(C(=O)c5c(F)cccc5F)c[nH]c4c3=O)[nH]c2c1` [Example 12, 3-(2,6-difluorobenzoyl)-6-[(6-methyl-3H-imidazo[4,5-b]pyridin-2-yl)methyl]-1,6-dihydro-7H-pyrrolo[2,3-c]pyridin-7-one]: the IC50 on p38α amounted to 0.025 µM; in the assay with TNF-α, 0.142 µM. For `O=C(c1c(F)cc(F)cc1F)c1c[nH]c2c(=O)n(Cc3nc4cccnc4[nH]3)ccc12` [Example 6, 6-(3H-imidazo[4,5-b]pyridin-2-ylmethyl)-3-(2,4,6-trifluorobenzoyl)-1,6-dihydro-7H-pyrrolo[2,3-c]pyridin-7-one], the concentration for half-maximal inhibition (IC50) at p38α came to 0.018 µM; in the assay on TNF-α it was 0.084 µM. On to `O=C(c1c(F)cc(F)cc1F)c1c[nH]c2c(=O)n(Cc3nc4ncc(C(=O)N5CCOCC5)cc4[nH]3)ccc12` [Example 16, 6-{[6-(morpholin-4-ylcarbonyl)-1H-imidazo[4,5-b]pyridin-2-yl]methyl}-3-(2,4,6-trifluorobenzoyl)-1,6-dihydro-7H-pyrrolo[2,3-c]pyridin-7-one], for which the IC50 against p38α was 0.019 µM; in the assay with TNF-α, 0.217 µM. `O=C(c1c(F)cc(F)cc1F)c1c[nH]c2c(=O)n(Cc3nc4ccccc4o3)ccc12` [Example 10, 6-(1,3-benzoxazol-2-ylmethyl)-3-(2,4,6-trifluorobenzoyl)-1,6-dihydro-7H-pyrrolo[2,3-c]pyridin-7-one]: the IC50 on p38α was found to be 0.04 µM; with TNF-α, 1.37 µM. In turn, `O=C(c1c(F)cc(F)cc1F)c1c[nH]c2c(=O)n(Cc3nc4ccncc4[nH]3)ccc12` [Example 17, 6-(3H-imidazo[4,5-c]pyridin-2-ylmethyl)-3-(2,4,6-trifluorobenzoyl)-1,6-dihydro-7H-pyrrolo[2,3-c]pyridin-7-one] had an IC50 on p38α of 0.013 µM.

As to `Cc1cnc2nc(Cn3ccc4c(C(=O)c5c(F)cc(F)cc5F)c[nH]c4c3=O)[nH]c2c1` [Example 11, 6-[(6-methyl-3H-imidazo[4,5-b]pyridin-2-yl)methyl]-3-(2,4,6-trifluorobenzoyl)-1,6-dihydro-7 H-pyrrolo[2,3-c]pyridin-7-one], the values for the IC50 on p38α and with TNF-α were 0.014 µM and 0.039 µM, respectively.

On to `O=C(c1c(F)cc(F)cc1F)c1c[nH]c2c(=O)n(Cc3nc4ncc(Br)cc4[nH]3)ccc12` [Example 8, 6-[(6-bromo-3H-imidazo[4,5-b]pyridin-2-yl)methyl]-3-(2,4,6-trifluorobenzoyl)-1,6-dihydro-7H-pyrrolo[2,3-c]pyridin-7-one], for which the IC50 against p38α stood at 0.024 µM; in the assay with TNF-α, 0.253 µM. At p38α, `NC(=O)c1ccn2cc(Cn3ccc4c(C(=O)c5c(F)cc(F)cc5F)c[nH]c4c3=O)nc2c1` [Example 22, 2-{[7-oxo-3-(2,4,6-trifluorobenzoyl)-1,7-dihydro-6H-pyrrolo[2,3-c]pyridin-6-yl]methyl}imidazo[1,2-a]pyridine-7-carboxamide] came in with an IC50 of 0.0013 µM. With `O=c1c2[nH]cc(Cc3c(F)cc(F)cc3F)c2ccn1Cc1nc2ncccc2[nH]1` [Example 29, 6-(1H-imidazo[4,5-b]pyridin-2-ylmethyl)-3-(2,4,6-trifluorobenzyl)-1,6-dihydro-7H-pyrrolo[2,3-c]pyridin-7-one], the IC50 against p38α was 0.108 µM; in the assay with TNF-α it was 0.503 µM.

Turning to `O=C(c1c(F)cc(F)cc1F)c1c[nH]c2c(=O)n(Cc3cn4ccc(C(F)(F)F)cc4n3)ccc12` [Example 18, 3-(2,4,6-trifluorobenzoyl)-6-{[(7-trifluoromethyl)imidazo[1,2-c]pyridin-2-yl]methyl}-1,6-dihydro-7H-pyrrolo[2,3-c]pyridin-7-one], the IC50 at p38α is 0.012 µM; in the assay on TNF-α it was 0.201 µM.

With `O=C(c1c(F)cc(F)cc1F)c1c[nH]c2c(=O)n(Cc3nc4cc(C(F)(F)F)cnc4[nH]3)ccc12` [Example 19, 3-(2,4,6-trifluorobenzoyl)-6-{[6-(trifluoromethyl)-3H-imidazo[4,5-b]pyridin-2-yl]methyl}-1,6-dihydro-7H-pyrrolo[2,3-c]pyridin-7-one], the IC50 against p38α worked out at 0.031 µM; with TNF-α, 0.365 µM. As for `O=C(c1c(F)cc(F)cc1F)c1c[nH]c2c(=O)n(Cc3nc4cccc(F)c4[nH]3)ccc12` [Example 2, 6-[(4-fluoro-1H-benzimidazol-2-yl)methyl]-3-(2,4,6-trifluorobenzoyl)-1,6-dihydro-7H-pyrrolo[2,3-c]pyridin-7-one], the figures for the IC50 against p38α and in the assay on TNF-α were 0.027 µM and 0.128 µM, respectively.

For the compound `Cc1ccc2nc(Cn3ccc4c(C(=O)c5c(F)cccc5F)c[nH]c4c3=O)cn2n1` [Example 9, 3-(2,6-difluorobenzoyl)-6-[(6-methylimidazo[1,2-b]pyridazin-2-yl)methyl]-1,6-dihydro-7H-pyrrolo[2,3-c]pyridin-7-one], the IC50 came to 0.016 µM against p38α and 0.217 µM in the assay with TNF-α. On p38α, `O=C(O)c1ccn2cc(Cn3ccc4c(C(=O)c5c(F)cc(F)cc5F)c[nH]c4c3=O)nc2c1` [Example 23, 2-{[7-oxo-3-(2,4,6-trifluorobenzoyl)-1,7-dihydro-6H-pyrrolo[2,3-c]pyridin-6-yl]methyl}imidazo[1,2-a]pyridine-7-carboxylic acid] displayed an IC50 of 0.002 µM. Turning to `O=C(c1c(F)cc(F)cc1F)c1c[nH]c2c(=O)n(Cc3nc4ccc(F)c(F)c4[nH]3)ccc12` [Example 3, 6-[(4,5-difluoro-1H-benzimidazol-2-yl)methyl]-3-(2,4,6-trifluorobenzoyl)-1,6-dihydro-7H-pyrrolo[2,3-c]pyridin-7-one], the IC50 at p38α came out at 0.023 µM; in the assay with TNF-α, 0.128 µM. For `O=C(c1c(F)cc(F)cc1F)c1c[nH]c2c(=O)n(Cc3cn4cccnc4n3)ccc12` [Example 5, 6-(imidazo[1,2-a]pyrimidin-2-ylmethyl)-3-(2,4,6-trifluorobenzoyl)-1,6-dihydro-7H-pyrrolo[2,3-c]pyridin-7-one], the IC50 on p38α turned out to be 0.0053 µM; with TNF-α, 0.088 µM. For `O=C(c1ccc(F)cc1F)c1c[nH]c2c(=O)n(Cc3cn4ccccc4n3)ccc12` [Example 20, 3-(2,4-difluorobenzoyl)-6-(imidazo[1,2-a]pyridin-2-ylmethyl)-1,6-dihydro-7H-pyrrolo[2,3-c]pyridin-7-one], the IC50 amounted to 0.018 µM against p38α and 0.162 µM with TNF-α. With `CN(C)C(=O)c1ccn2cc(Cn3ccc4c(C(=O)c5c(F)cc(F)cc5F)c[nH]c4c3=O)nc2c1` [Example 24, N,N-dimethyl-2-{[7-oxo-3-(2,4,6-trifluorobenzoyl)-1,7-dihydro-6H-pyrrolo[2,3-c]pyridin-6-yl]methyl}imidazo[1,2-a]pyridine-7-carboxamide], the IC50 stood at 0.0038 µM against p38α and 0.021 µM in the assay with TNF-α. In the case of `CNC(=O)c1ccc2nc(Cn3ccc4c(C(=O)c5c(F)cc(F)cc5F)c[nH]c4c3=O)[nH]c2c1` [Example 27, N-methyl-2-{[7-oxo-3-(2,4,6-trifluorobenzoyl)-1,7-dihydro-6H-pyrrolo[2,3-c]pyridin-6-yl]methyl}-1H-benzimidazole-5-carboxamide], the IC50 at p38α came to 0.003 µM.

For `Cc1cc(F)c(C(=O)c2c[nH]c3c(=O)n(Cc4cc5ccccn5n4)ccc23)c(F)c1` [Example 14, 3-(2,6-difluoro-4-methylbenzoyl)-6-(pyrazolo[1,5-a]pyridin-2-ylmethyl)-1,6-dihydro-7H-pyrrolo[2,3-c]pyridin-7-one], the IC50 amounted to 0.022 µM against p38α and 0.486 µM in the assay on TNF-α. Turning to `CNC(=O)c1ccn2cc(Cn3ccc4c(C(=O)c5c(F)cc(F)cc5F)c[nH]c4c3=O)nc2c1` [Example 25, N-methyl-2-{[7-oxo-3-(2,4,6-trifluorobenzoyl)-1,7-dihydro-6H-pyrrolo-[2,3-c]pyridin-6-yl]methyl}-imidazo[1,2-c]pyridine-7-carboxamide], inhibition against p38α was half-maximal at 0.001 µM (IC50). Turning to `O=C(c1c(F)cc(F)cc1F)c1c[nH]c2c(=O)n(Cc3nc4ccccc4[nH]3)ccc12` [Example 1, 6-(1H-benzimidazol-2-ylmethyl)-3-(2,4,6-trifluorobenzoyl)-1,6-dihydro-7H-pyrrolo[2,3-c]pyridin-7-one], the IC50 against p38α worked out at 0.045 µM; in the assay with TNF-α, 0.461 µM. `O=c1c2[nH]cc(C(O)c3ccc(F)cc3F)c2ccn1Cc1cn2ccccc2n1` (stereo not drawn) [Example 28, 3-[(2,4-difluorophenyl)(hydroxy)methyl]-6-(imidazo[1,2-a]pyridin-2-ylmethyl)-1,6-dihydro-7H-pyrrolo[2,3-c]pyridin-7-one] had an IC50 at p38α of 0.249 µM. In the case of `O=C(c1c(F)cncc1F)c1c[nH]c2c(=O)n(Cc3cc4ccccn4n3)ccc12` [Example 13, 3-(3,5-difluoroisonicotinoyl)-6-(pyrazolo[1,5-c]pyridin-2-ylmethyl)-1,6-dihydro-7H-pyrrolo[2,3-c]pyridin-7-one], the results for the IC50 at p38α and in the assay on TNF-α were 0.029 µM and 1.52 µM, respectively.
